{
  "source": "patent US20220361555A1",
  "about": "“INHIBITION OF UNDESIRED SENSORY EFFECTS BY THE COMPOUND CAMPHOR” (priority 2010, published 2022)",
  "key": {"acetylcholine receptors": {"system": "acetylcholine receptors", "settings": "by inhibiting acetylcholine receptors, Park et al.; cited from earlier work"}, "participants (mouth)": {"system": "participants (mouth)", "assay": "Determination of irritation threshold of camphor solution in the mouth", "type": "in vivo, human", "design": "key to irritation perceived: Y: the participant felt irritation at the indicated concentration; N: no irritation was felt", "settings": "for irritation perceived: 2 ml solution swished 10 seconds", "description": "A further study was conducted to determine the threshold at which camphor itself would cause sensory irritation.\nEach test used two milliliters (2 ml) of a camphor solution. The camphor was dissolved in ethanol and further diluted in water. Participants received sequentially increasing concentration of camphor. Nine participants received samples including food grade racemic camphor, with concentrations of 200, 300, 400, […] 1000, 2000, 4000, 6000 ppm (corresponding to about […] per sample, respectively).\nParticipants wore nose clips during evaluation. Each participant sipped the sample, swished it in the mouth for 10 seconds, then spat it out. Each participant then indicated whether irritation was perceived. Between evaluations of each sample, participants rinsed with water and waited for one minute.\nThe left-most column indicates the participant number of each individual participant."}, "[1]": {"system": "tongues of human volunteers", "assay": "Pre-treatment with camphor (ethanol/water solution on a strip) on sensory irritation from nicotine", "type": "in vivo", "settings": "25, 50 or 100 ppm camphor on a strip for 30 seconds, then 0.1-0.3% nicotine; immediately and 30 seconds after initial exposure", "excerpt": "FIGS. 1 and 2 show the results of a study on the effect of pre-treatment with camphor on sensory irritation from nicotine. Camphor was applied to tongues of human volunteers prior to application of a nicotine solution. Randomized sides of tongues were selected for application of 20 microliters of 0 ppm, 25 ppm, 50 ppm, or 100 ppm of camphor from an ethanol/water solution on a strip (thus, about […], respectively) for 30 seconds. Then, the subjects sipped, rinsed, then spit 0.1%, 0.2%, or 0.3% of a nicotine solution for a 5 second application. Participants were then asked which side of the tongue has the strongest burning sensation. Responses were collected both immediately (within 5 seconds) (FIG. 1) and after 30 seconds (FIG. 2). Controls received no camphor, and a baseline was established at zero camphor."}, "[2]": {"system": "mouth of subjects using oral tobacco", "assay": "Snus pouches with camphor, perceived burning in the mouth (2AFC)", "type": "in vivo, human", "settings": "snus pouch", "description": "A further study was conducted to determine if camphor affected perceived burning in the mouth of subjects using oral tobacco. Participants were given two snus pouch samples to use simultaneously, one in each side of the mouth. One sample was a control pouch with no camphor added and the other contained various concentrations of camphor (2.3, 6, 12, 23, 46, and 69 nanograms, corresponding to […], based on tobacco weight, respectively).\nThe hand-made test samples were constructed using unflavored tobacco (12% oven volatiles) to prevent any possible interference of the flavor system with the objective of the study. In preparing the pouches, the camphor was dissolved in 95% ethanol, with the control pouches receiving the ethanol only. […]\nAfter two (2) minutes, five (5) minutes, and ten (10) minutes of using the samples, participants were asked to indicate which side of the mouth was burning more. Responses were recorded on paper by the experimenter. […] Following each evaluation, participants were asked to give details regarding where the burning was felt and to provide any open-ended comments regarding their experience, which were recorded on paper by the experimenter. Participants repeated the sensory evaluation procedures an additional six (6) times, with a maximum of two (2) pairs being evaluated each day."}, "nerve fibers": {"system": "nerve fibers", "settings": "isolated mouse trachea model, Kichko et al.; cited from earlier work"}, "[3]": {"system": "tongues of 18 participants", "assay": "Camphor in NEOBEE oil carrier pretreatment, burning sensation from nicotine strips", "type": "in vivo, human", "design": "Difference from control (burning from nicotine): scale not given here", "description": "Camphor pretreatment was performed using two taste strips applied bilaterally (blinded, randomized) on the tongues of 18 participants. Test strips had 250 microliters of NEOBEE oil carrier with camphor concentrations of C ranging from 300 ppm to 1800 ppm. Control strips contained 250 microliters of carrier only (NEOBEE Oil). The pretreatment time was about 30 seconds. Participants then removed the taste strips and nicotine strips were placed in treated area. The nicotine was provided in an amount of 730 micrograms in 50 microliters for about 30 seconds. Each nicotine strip was then removed, followed by sensory evaluation of burning immediately, at 30 seconds, and 2 minutes. For sensory evaluation, 2 AFC and sensory irritation intensity ratings were generated.\nA repeated measures analysis of variance (ANOVA) model was applied to analyze the data. The model includes terms for study participant, study time and concentration of camphor (see the Table 1). The SAS procedure “PROC MIXED” was used. The p value was for the comparison between each concentration with the control. The chi squared test was used for calculating significance for forced choice values."}, "[4]": {"assay": "Sensory effect of camphor in mineral oil in smokeless tobacco products", "type": "in vivo"}},
  "note": "Values joined by “and” are separate entries in the source; they are usually repeats but may differ in a detail not shown here. Identical values can stand only once. “Also recorded” adds a separate entry of the source.",
  "data": [
    {"smiles": "CC12CCC(CC1=O)C2(C)C", "note": "(racemic) [camphor]", "values": [
      {"measurement": "norepinephrine release from adrenal gland cells", "setting": "acetylcholine receptors", "result": "inhibit norepinephrine release"},
      {"measurement": "irritation perceived", "setting": "participants (mouth); 200 ppm camphor, one line per participant", "result": "Y (3×) and N (6×)"},
      {"measurement": "irritation perceived", "setting": "participants (mouth); 300 ppm camphor, one line per participant", "result": "Y (3×) and N (6×)"},
      {"measurement": "irritation perceived", "setting": "participants (mouth); 400 ppm camphor, one line per participant", "result": "Y (4×) and N (4×)"},
      {"measurement": "irritation perceived", "setting": "participants (mouth); 500 ppm camphor, one line per participant", "result": "N (3×) and Y (3×)"},
      {"measurement": "irritation perceived", "setting": "participants (mouth); 1000 ppm camphor, one line per participant", "result": "N and Y (2×)"},
      {"measurement": "irritation perceived", "setting": "participants (mouth); 2000 ppm camphor, one line per participant", "result": "Y"},
      {"measurement": "irritation perceived", "setting": "participants (mouth); 4000 ppm camphor, one line per participant", "result": "Y"},
      {"measurement": "irritation perceived", "setting": "participants (mouth); 6000 ppm camphor, one line per participant", "result": "Y"},
      {"measurement": "mean threshold for producing irritation", "setting": "participants (mouth); n=9", "result": 655, "unit": "ppm"},
      {"measurement": "Notes (sensation described by participant)", "setting": "participants (mouth); one line per participant, first line given", "result": "Very slight tingling at 200,; also recorded: Felt slight tingling at 2000,; also recorded: Felt some tingling at 1000,; also recorded: Tingling at 300, tingling no; also recorded: Slight tingling and burning at; also recorded: No Burning, slight tingling on; also recorded: Some burning at 200, stronger; also recorded: Felt slight tingling at 500,; also recorded: Some burning and stinging at"},
      {"measurement": "perceived burning from nicotine after pre-treatment with camphor", "setting": "[1]", "result": "significantly reduced perceived burning from nicotine"},
      {"measurement": "time at which the effect on oral burning was strongest", "setting": "[2]; asked at 2, 5 and 10 minutes", "result": 10, "unit": "min"},
      {"measurement": "quantity of camphor most effective in reducing oral burning", "setting": "[2]; printed as corresponding to 50 ppm", "result": 12, "unit": "nanogram"},
      {"measurement": "activation of nerve fibers induced by nicotine", "setting": "nerve fibers", "result": "effectively inhibit activation of nerve fibers"},
      {"measurement": "sensory irritation from nicotine versus control", "setting": "[3]; 600 ppm, 900 ppm and 1200 ppm camphor, immediately, at 30 seconds and at 120 seconds after nicotine", "result": "significant reduction in sensory irritation from nicotine"},
      {"measurement": "Difference from control (burning from nicotine)", "setting": "[3]; study time 0 sec, camphor 300 ppm in NEOBEE oil", "result": 4.31},
      {"measurement": "Difference from control (burning from nicotine)", "setting": "[3]; study time 0 sec, camphor 600 ppm in NEOBEE oil", "result": "−24.03"},
      {"measurement": "Difference from control (burning from nicotine)", "setting": "[3]; study time 0 sec, camphor 900 ppm in NEOBEE oil", "result": "−22.64"},
      {"measurement": "Difference from control (burning from nicotine)", "setting": "[3]; study time 0 sec, camphor 1200 ppm in NEOBEE oil", "result": "−19.99"},
      {"measurement": "Difference from control (burning from nicotine)", "setting": "[3]; study time 0 sec, camphor 1500 ppm in NEOBEE oil", "result": "−8.62"},
      {"measurement": "Difference from control (burning from nicotine)", "setting": "[3]; study time 0 sec, camphor 1800 ppm in NEOBEE oil", "result": 7.29},
      {"measurement": "Difference from control (burning from nicotine)", "setting": "[3]; study time 30 sec, camphor 300 ppm in NEOBEE oil", "result": "−1.67"},
      {"measurement": "Difference from control (burning from nicotine)", "setting": "[3]; study time 30 sec, camphor 600 ppm in NEOBEE oil", "result": "−18.00"},
      {"measurement": "Difference from control (burning from nicotine)", "setting": "[3]; study time 30 sec, camphor 900 ppm in NEOBEE oil", "result": "−19.72"},
      {"measurement": "Difference from control (burning from nicotine)", "setting": "[3]; study time 30 sec, camphor 1200 ppm in NEOBEE oil", "result": "−14.30"},
      {"measurement": "Difference from control (burning from nicotine)", "setting": "[3]; study time 30 sec, camphor 1500 ppm in NEOBEE oil", "result": "−11.11"},
      {"measurement": "Difference from control (burning from nicotine)", "setting": "[3]; study time 30 sec, camphor 1800 ppm in NEOBEE oil", "result": 5.25},
      {"measurement": "Difference from control (burning from nicotine)", "setting": "[3]; study time 120 sec, camphor 300 ppm in NEOBEE oil", "result": "−2.12"},
      {"measurement": "Difference from control (burning from nicotine)", "setting": "[3]; study time 120 sec, camphor 600 ppm in NEOBEE oil", "result": "−13.80"},
      {"measurement": "Difference from control (burning from nicotine)", "setting": "[3]; study time 120 sec, camphor 900 ppm in NEOBEE oil", "result": "−17.69"},
      {"measurement": "Difference from control (burning from nicotine)", "setting": "[3]; study time 120 sec, camphor 1200 ppm in NEOBEE oil", "result": "−11.93"},
      {"measurement": "Difference from control (burning from nicotine)", "setting": "[3]; study time 120 sec, camphor 1500 ppm in NEOBEE oil", "result": "−2.38"},
      {"measurement": "Difference from control (burning from nicotine)", "setting": "[3]; study time 120 sec, camphor 1800 ppm in NEOBEE oil", "result": 2.16},
      {"measurement": "concentration of camphor that does not exhibit a sensory effect of its own (smell, taste, extensive cooling)", "setting": "[4]", "result": "less than 1300 ppm"}
    ]}
  ]
}
